Data reported in patent US20260293902A1, “METHODS OF CONTROLLING OR PREVENTING INFESTATION OF PLANTS BY THE PHYTOPATHOGENIC MICROORGANISM CORYNESPORA CASSIICOLA” (SYNGENTA CROP PROTECTION AG, priority 2023, published 2026).

What was measured:
Corynespora cassiicola [1] = experiment: Control of Corynespora cassiicola (target leaf spot) in vitro: inhibition of fungal growth in nutrient broth (PDB); assay type: cell-based; conditions: 24° C., 3-4 days, photometric 620 nm, read-out: control of Corynespora cassiicola (inhibition of growth vs untreated control)
Protocol: Conidia of the fungus from cryogenic storage were directly mixed into nutrient broth (PDB potato dextrose broth). A DMSO solution of the test compounds was placed into a microtiter plate (96-well format) and the nutrient broth containing the fungal spores was added to it. The test plates were incubated at 24° C. and the inhibition of growth (% control of Corynespora cassiicola) was determined photometrically after 3-4 days at 620 nm. The activity of a compound is derived by comparing the inhibition of growth in the treated test solution to the growth in the untreated check. The concentration of the compounds was 6.7, 2.2, 0.74, 0.25, and 0.082 ppm.

Corynespora cassiicola [2] = experiment: Control of Corynespora cassiicola (target leaf spot) on soybean plants under field conditions; assay type: in vivo; conditions: for Control vs. untreated (%) / Mean severity (percentage of leaf area covered by disease lesions): three foliar applications, soybean, Brazil
Protocol: Tested fungicides were formulated and applied to soybean plants in a foliar broadcast spray using a handheld horizontal boom sprayer. Three applications were made over the course of the growing season, starting 45 days after crop emergence, with following applications at 14-day intervals. Trials were conducted across five locations in Brazil. Assessments of severity of infection from Corynespora cassiicola were made at weekly intervals, based on the percentage of leaf area covered by disease lesions. The results reflect the median scores for these assessments, excluding those with less than 10% severity in the untreated checks to limit the confounding effect of low disease pressure. Values are expressed as the mean disease severity score and as the percentage control relative to the untreated. The comparison is made between Compound A-1.3 at 35 grams active ingredient per hectare and the commercial compounds trifloxystrobin and picoxystrobin at their label rate of 60 grams active ingredient per hectare.

[3] = Trial 1, 60 g/ha, untreated check 24.9
[4] = Trial 2, 60 g/ha, untreated check 18.8

SMILES | inhibition of growth at 2.2 ppm (Corynespora cassiicola [1]) | inhibition of growth at 6.7 ppm (Corynespora cassiicola [1]) | Control vs. untreated (%) (Corynespora cassiicola [2]; Trial 1, 60 g/ha) | Mean severity (percentage of leaf area covered by disease lesions) (Corynespora cassiicola [2]; [3]) | Control vs. untreated (%) (Corynespora cassiicola [2]; Trial 2, 60 g/ha) | Mean severity (percentage of leaf area covered by disease lesions) (Corynespora cassiicola [2]; [4]) | other results
COC(=O)NCc1cc(-c2ccn(-c3c(F)cc(C(C)C)cc3F)n2)ccc1C [Compound A-1.1, methyl N-[[5-[1-(2,6-difluoro-4-isopropyl-phenyl)pyrazol-3-yl]-2-methyl-phenyl]methyl]carbamate] | ≥ 50% | ≥ 50% | – | – | – | – | –
COC(=O)NCc1cc(-c2ccn(-c3c(F)cc(C4CC4)cc3F)n2)ccc1C [Compound A-1.3, methyl N-[[5-[1-(4-cyclopropyl-2,6-difluoro-phenyl)pyrazol-3-yl]-2-methyl-phenyl]methyl]carbamate] | ≥ 50% | ≥ 70% | – | – | – | – | inhibition of growth at 0.74 ppm (Corynespora cassiicola [1]; 0.74 ppm): ≥ 50%; Control vs. untreated (%) (Corynespora cassiicola [2]; Trial 1, 35 g/ha): 63.9%; Mean severity (percentage of leaf area covered by disease lesions) (Corynespora cassiicola [2]; Trial 1, 35 g/ha, untreated check 24.9): 9.9; Control vs. untreated (%) (Corynespora cassiicola [2]; Trial 2, 35 g/ha): 68.0%; Mean severity (percentage of leaf area covered by disease lesions) (Corynespora cassiicola [2]; Trial 2, 35 g/ha, untreated check 18.8): 5.3; control of Corynespora cassiicola compared with commercial compounds, in words (Corynespora cassiicola [2]; field trials 1 and 2, 35 g/ha vs trifloxystrobin and picoxystrobin at 60 g/ha): better control of Corynespora cassiicola than both trifloxystrobin and picoxystrobin
CO/C=C(/C(=O)OC)c1ccccc1COc1cccc(C(F)(F)F)n1 [Picoxystrobin, picoxystrobin] | – | – | 45.9% | 14.8 | 20.0% | 14.0 | –
CO/C=C(/C(=O)OC)c1ccccc1Oc1cc(Oc2ccccc2C#N)ncn1 [azoxystrobin] | – | 50% | – | – | – | – | –
COC(=O)N(OC)c1ccccc1COc1ccn(-c2ccc(Cl)cc2)n1 [pyraclostrobin] | – | 50% | – | – | – | – | –
CON=C(C(=O)OC)c1ccccc1CON=C(C)c1cccc(C(F)(F)F)c1 [trifloxystrobin] | – | 50% | 35.3% | 18.1 | 6.7% | 16.0 | –
